Test results from patent US8815919B2, “Oxadiazole derivatives” (Merck Serono SA, priority 2009, dated 2014).
Counter-ions that a name gives are not always drawn. Like-named read-outs stand apart in the source and are kept apart here.

Assays:
S1P1 [1] = molecular target: T1, S1P1 (Homo sapiens, UniProt P21453); test: Receptor binding assay, [33P]sphingosine 1-phosphate competition, S1P1 membranes, WGA SPA beads
Protocol: (§1) Membranes were prepared from CHO cells expressing S1P1 or S1P3 for use in ligand and […] binding studies. Cells were suspended in 50 mM TRIS, pH 7.4, 2 mM EDTA, 250 mM Sucrose (buffer A) and 1× Complete protease inhibitor cocktail (Roche), and disrupted at 4° C. by N2 decompression using a cell disruption bomb (Parr Instrument). Following centrifugation at 1000 RPM for 10 min at 4° C., the supernatant was diluted (2×) in buffer A and centrifuged again at 19000 RPM for 75 min at 4° C. The pellet was then suspended in 10 mM HEPES, pH 7.4, 1 mM EDTA, 250 mM Sucrose (Buffer B), and 1× Complete EDTA-free protease inhibitor cocktail and homogenized using a potter. Membranes were flash frozen in liquid N2 and stored at −80° C.
(§2) Receptor binding assay: [33P]sphingosine 1-phosphate (3000 Ci/mmol; American Radiolabeled Chemicals, Inc.) was added to test compounds in 20% DMSO by competition. Membranes and WGA SPA beads (GE Healthcare) were added to give a final volume of 100 μl in 96-well plates or 50 μl in 384-well plates with assay concentrations of […] [33P]sphingosine 1-phosphate (respectively for S1P1 or S1P3), 50 mM HEPES, pH 7.5, 5 mM MgCl2, 100 mM NaCl, 0.4% fatty acid-free BSA, 1-5 μg/well of proteins in 96-well plates vs 0.6-1 μg/well of proteins in 384-well plates and 100 μg/well of WGA SPA beads in 96-well plates vs 75 μg/well of WGA SPA beads in 384-well plates. Binding was performed for 60 min at RT on a shaker and bound radioactivity was measured on a PerkinElmer 1450 MicroBeta counter. Triplicate samples were averaged and normalized as percentage of inhibition relative to total binding (only DMSO in well) and nonspecific binding (1000-fold excess of unlabeled S1P). Binding data were analyzed using the GraphPad Prism program or Genedata software.
Target sequence in this assay (P21453 whole entry, species assumed): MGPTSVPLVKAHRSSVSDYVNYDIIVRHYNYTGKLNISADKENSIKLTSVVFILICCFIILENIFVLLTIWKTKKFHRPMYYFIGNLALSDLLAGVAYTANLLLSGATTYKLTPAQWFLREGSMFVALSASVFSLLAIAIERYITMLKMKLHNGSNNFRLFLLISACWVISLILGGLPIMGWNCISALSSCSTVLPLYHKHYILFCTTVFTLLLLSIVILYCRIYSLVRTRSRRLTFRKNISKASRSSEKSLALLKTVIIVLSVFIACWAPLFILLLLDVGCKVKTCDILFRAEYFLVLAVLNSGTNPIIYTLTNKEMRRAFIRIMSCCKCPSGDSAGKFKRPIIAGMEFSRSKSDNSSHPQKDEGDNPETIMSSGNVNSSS

S1P3 = S1P3 (Homo sapiens, UniProt Q99500); test: Receptor binding assay, [33P]sphingosine 1-phosphate competition, S1P3 membranes, WGA SPA beads
Protocol: as §1, §2

S1P1 [2] = molecular target: T1, S1P1; test: S1P1 internalization assay in S1P1-U2OS cells (S1P1-EGFP), cell imaging; format: cell-based; set-up: host or cells: U2OS (human bone osteosarcoma epithelial cells), CMV promoter, geneticin selection; settings: 1 hour incubation
Protocol: Cellular functional assays: Internalization of Sphingosine-1-phosphate receptor 1 (S1P1) in a human Cell line (U2OS) in a 384-well format using a Cell Imaging analysis. • Jo, E.; Sanna, M. G.; Gonzalez-Cabrera, P. J.; Thangada, S.; Tigyi, S.; Osborne, D. A.; Hla, T.; Parrill, A. L.; Rosen, H. Chem. Biol. 2005, 12, 703
The S1P1 internalization assay was performed in 384 well plates (Corning® 384 black with clear bottom 3712) using S1P1-U2OS cells from Biolmage (C039A), a human epithelial cell line (Human Bone Osteosarcoma Epithelial Cells). These cells expressed the human S1P1 Receptor fused to the green fluorescent protein (EGFP). A standard CMV promoter (cytomegalovirus promoter) controls the expression of S1P1-EGFP and continuous expression was maintained by addition of geneticin to the culture medium.
S1P1 Receptor desensitization induced the internalization of the membrane-localized S1P1-EGFP fusion protein to endosomes, which can be monitored by cell imaging analysis. The cells are plated in low serum medium (Dulbecco's Modified Eagle Medium (DMEM) with Glutamax-1 and high glucose, 1% Penicillin/Streptomycin, 1% Fetal Calf Serum (FCS), 0.5 mg/ml Geneticin) overnight.
The next day, S1P1-U2OS cells are incubated in 20 μl serum free medium (DMEM with Glutamax-1 and high glucose, 0.1% of fatty-acid free Bovin Serum Albumin (BSA), 10 mM, N′-2-Hydroxyethylpiperazine-N′-2 ethanesulphonic acid (HEPES) 1M) for 2 hours at 37° C./5% CO2. The cells are then treated with 4 μl compounds/agonists (6×/3% DMSO) for a total volume of 24 μl, and plates are incubated for 1 hour at 37° C./5% CO2.
S1P1-U2OS cells are fixed with 25 μl Paraformaldehyde 8% and stained with Hoechst 33345 dye (1:1000) for 20 minutes.
They were then washed 3 times with Phosphate Buffered Saline (PBS) and plates are sealed. The internalization of the receptor S1P1-EGFP is measured on Cellomics by calculating the “spot count per object” (“object” corresponds to nuclear and “spot” corresponds to S1P1-EGFP receptor). Internalization data were observed thanks to vHCS View and analyzed using Genedata® software.
Target sequence in this assay (P21453 whole entry): as the sequence (P21453 whole entry, species assumed) above

[3] = 96 well-plate, read-out: S1P1 binding Ki (M) (96 well-plate)
[4] = 96 well-plate, read-out: S1P3 binding Ki (M) (96 well-plate)
[5] = 384 well-plate, read-out: S1P1 binding Ki (M) (384 well-plate)
[6] = 384 well-plate, read-out: S1P3 binding Ki (M) (384 well-plate)

Chain of S1P3 (Q99500 whole entry, species assumed): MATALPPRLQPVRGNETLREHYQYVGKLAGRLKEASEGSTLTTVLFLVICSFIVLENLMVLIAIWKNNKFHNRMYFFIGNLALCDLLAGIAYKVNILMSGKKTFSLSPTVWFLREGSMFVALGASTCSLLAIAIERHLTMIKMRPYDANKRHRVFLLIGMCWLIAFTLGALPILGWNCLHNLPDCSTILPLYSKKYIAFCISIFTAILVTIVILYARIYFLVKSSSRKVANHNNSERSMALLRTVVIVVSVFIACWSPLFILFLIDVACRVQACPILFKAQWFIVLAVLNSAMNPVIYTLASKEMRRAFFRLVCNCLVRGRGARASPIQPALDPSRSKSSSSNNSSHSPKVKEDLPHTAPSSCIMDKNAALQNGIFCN

Structure (SMILES) | Ki (S1P1 [1]; [3]) [M] | Ki (S1P3; [4]) [M] | EC50 (S1P1 [2]) [nM] | Ki (S1P1 [1]; [5]) [M] | Ki (S1P3; [6]) [M]
COCc1cc(-c2nc(-c3cc(F)cc(CN(C)CC(=O)O)c3)no2)ccc1-c1ccccc1 [Example 76] | 1.81e-10 | 1.09e-08 | 5.36 | – | –
CCCN(CC(=O)O)Cc1cccc(-c2noc(-c3ccc(-c4ccccc4C)c(COC)c3)n2)c1 [Example 77, N-(3-{5-[2-(methoxymethyl)-2′-methylbiphenyl-4-yl]-1,2,4-oxadiazol-3-yl}benzyl)-N-propylglycine, hydrochloride salt] | 1.58e-09 | 6.05e-07 | 52.6 | 9.83e-10 | –
CCN(CC(=O)O)Cc1cccc(-c2noc(-c3ccc(-c4ccccc4C)c(COC)c3)n2)c1 [Example 78, N-ethyl-N-(3-{5-[2-(methoxymethyl)-2′-methylbiphenyl-4-yl]-1,2,4-oxadiazol-3-yl}benzyl)glycine, hydrochloride salt] | 4.41e-10 | 1.5e-07 | 34.3 | 2.47e-09 | 3.54e-07
COCc1cc(-c2nc(-c3ccc(CN(C)CC(=O)O)c(OC)c3)no2)ccc1-c1ccccc1C [Example 79, 2-((2-methoxy-4-(5-(2-(methoxymethyl)-2′-methylbiphenyl-4-yl)-1,2,4-oxadiazol-3-yl)benzyl)(methyl)amino)acetic acid, hydrochloride salt] | 2.69e-09 | 4.84e-06 | 47.7 | 5.33e-09 | –
COc1cc(-c2noc(-c3ccc(N4CCCCC4C)c(C(F)(F)F)c3)n2)ccc1CN(C)CC(=O)O (stereo not drawn) [Example 80, 2-((2-methoxy-4-(5-(4-(2-methylpiperidin-1-yl)-3-(trifluoromethyl)phenyl)-1,2,4-oxadiazol-3-yl)benzyl)(methyl)amino)acetic acid, hydrochloride salt] | 1.6e-09 | 2.79e-06 | 47 | 3.12e-09 | –
COCc1cc(-c2nc(-c3ccc(CNCC(=O)O)c(F)c3)no2)ccc1-c1ccccc1F [Example 82, N-(2-fluoro-4-{5-[2′-fluoro-2-(methoxymethyl)biphenyl-4-yl]-1,2,4-oxadiazol-3-yl}benzyl)glycine, hydrochloride salt] | 5.42e-11 | 4.66e-08 | 1.73 | 3.74e-10 | 5.24e-08
COCc1cc(-c2nc(-c3ccc(CNCC(=O)O)c(F)c3)no2)ccc1-c1ccccc1C [Example 83, N-(2-fluoro-4-{5-[2-(methoxymethyl)-2′-methylbiphenyl-4-yl]-1,2,4-oxadiazol-3-yl}benzyl)glycine, hydrochloride salt] | 7.39e-11 | 1.01e-07 | 1.2 | 1.8e-10 | 2.75e-07
Cc1ccccc1-c1ccc(-c2nc(-c3ccc(CNCCC(=O)O)cc3)no2)cc1C(F)(F)F [Example 84] | 1.43e-10 | 1.56e-07 | 1.55 | 3.77e-10 | 1.73e-07
CC1CCCCN1c1ccc(-c2nc(-c3ccc(CN(C)CC(=O)O)c(F)c3)no2)cc1C(F)(F)F (stereo not drawn) [Example 85, N-(2-fluoro-4-{5-[4-(2-methylpiperidin-1-yl)-3-(trifluoromethyl)phenyl]-1,2,4-oxadiazol-3-yl}benzyl)-N-methylglycine, dihydrochloride salt] | 3.16e-10 | 1.77e-07 | 13.6 | 9.74e-10 | –
COCc1cc(-c2nc(-c3cccc(CCN(C)CC(=O)O)c3)no2)ccc1-c1ccccc1C [Example 86, [(2-{3-[5-(2-Methoxymethyl-2′-methyl-biphenyl-4-yl)-[1,2,4]oxadiazol-3-yl]-phenyl}-ethyl)-methyl-amino]-acetic acid] | 1.46e-10 | 3.18e-08 | 4.98 | 4.97e-10 | –
COCc1cc(-c2nc(-c3ccc(CCN(C)CC(=O)O)cc3)no2)ccc1-c1ccccc1C [Example 87, [(2-{4-[5-(2-Methoxymethyl-2′-methyl-biphenyl-4-yl)-[1,2,4]oxadiazol-3-yl]-phenyl}-ethyl)-methyl-amino]-acetic acid] | 4.23e-10 | 4.2e-07 | 13.6 | 9.45e-10 | 3.85e-07
COCc1cc(-c2nc(-c3ccc(CN(C)CC(=O)O)cc3)no2)ccc1-c1cccc(F)c1C [Example 90, N-(4-{5-[3′-fluoro-2-(methoxymethyl)-2′-methylbiphenyl-4-yl]-1,2,4-oxadiazol-3-yl}benzyl)-N-methylglycine, hydrochloride salt] | 2.78e-10 | 5.45e-07 | 4.46 | 8.65e-10 | 8.49e-07
COCc1cc(-c2nc(-c3ccc(CN(C)CC(=O)O)c(F)c3)no2)ccc1-c1cccc(F)c1C [Example 91, N-(2-fluoro-4-{5-[3′-fluoro-2-(methoxymethyl)-2′-methylbiphenyl-4-yl]-1,2,4-oxadiazol-3-yl}benzyl)-N-methylglycine, hydrochloride salt] | 1.63e-10 | 2e-07 | 5.53 | 1.13e-09 | 3.35e-07
CCOc1cc(-c2nc(-c3ccc(CN(C)CC(=O)O)c(F)c3)no2)ccc1-c1ccccc1C [Example 92, N-{4-[5-(2-ethoxy-2′-methylbiphenyl-4-yl)-1,2,4-oxadiazol-3-yl]-2-fluorobenzyl}-N-methylglycine, hydrochloride salt] | 1.72e-10 | 9.91e-08 | 7.91 | – | –
COCc1cc(-c2nc(-c3cc(Cl)cc(CN(C)CC(=O)O)c3)no2)ccc1-c1ccccc1C [Example 93, N-(3-chloro-5-{5-[2-(methoxymethyl)-2′-methylbiphenyl-4-yl]-1,2,4-oxadiazol-3-yl}benzyl)-N-methylglycine, hydrochloride salt] | 3.96e-10 | 9.4e-08 | 26.5 | – | –
COCc1cc(-c2nc(-c3ccc(CN(C)CC(=O)O)cc3C)no2)ccc1-c1ccccc1C [Example 102, 2-((4-(5-(2-(methoxymethyl)-2′-methylbiphenyl-4-yl)-1,2,4-oxadiazol-3-yl)-3-methylbenzyl)(methyl)amino)acetic acid] | – | 2.9e-07 | 13.7 | 1.44e-09 | 6.99e-07
COCc1cc(-c2nc(-c3ccc(CNCC(=O)O)cc3C)no2)ccc1-c1ccccc1C [Example 106, 2-(4-(5-(2-(methoxymethyl)-2′-methylbiphenyl-4-yl)-1,2,4-oxadiazol-3-yl)-3-methylbenzylamino)acetic acid] | – | 1.59e-07 | 4.12 | 4.66e-10 | 2.96e-07
Cc1cc(CNCC(=O)O)ccc1-c1noc(-c2ccc(-c3ccccc3C)c(C(F)(F)F)c2)n1 [Example 107, 2-(3-methyl-4-(5-(2′-methyl-2-(trifluoromethyl)biphenyl-4-yl)-1,2,4-oxadiazol-3-yl)benzylamino)acetic acid] | – | – | 2.84 | 4.79e-10 | 2.12e-07
